Measured values: patent US9896512B2, “Antitumor peptide derived from a complementarity determining region of a humanized monoclonal antibody to NAP12B transporter” (Recepta Biopharma S.A., priority 2010, dated 2018)
“Also recorded” adds a separate entry of the source. No end group written: not given here.

Columns and labels:
[1] = test system: B16F10-Nex2 melanoma cells; test: In vivo protection against lung colonization (metastatic melanoma model); set-up: species or system C57B1/6 mice; settings: 250 μg i.p. on days 1, 3, 5, 7, 9, 11; lungs after 22 days
Protocol: Details of the in vitro tumor cell growth, cytotoxicity tests, determination of viable cells and in vivo protection experiments with B16F10 cells in a mouse metastatic model are described in Polonelli et al. (PLoS One. 3(6):e2371, 2008) and Dobroff et al. (Translat. Onc., 3: 204-217, 2010).
Peptides RB9 and RB10 along with the apoptotic peptide A4H3, a true microantibody of cytotoxic anti-melanoma mAb (A4) (Dobroff et al., Translat. Onc., 3: 204-217, 2010), were tested for their protective effects against lung colonization by B16F10-Nex2 melanoma cells (2×105) injected intravenously in C57B1/6 mice (6 animals/group). Peptides were intraperitoneally administered (250 μg i.p.) on days 1, 3, 5, 7, 9, 11 after tumor cell challenge. Lungs of peptide-treated animals are shown in FIG. 5 after 22 days of tumor challenge. As noticed, peptide treatment was interrupted 10 days before animal sacrifice.
In vivo protection by peptides RB9 and RB10 (and A4H3 control) against lung colonization by B16F10-Nex2 melanoma cells (2×105) injected intravenously in C57B1/6 mice (6 animals/group) is shown in FIG. 6. The other 5 CDRs of RebMab200 (SEQ ID NOs: 7, 10, 11, 12, 13) were unprotective in vivo. Peptides were administered in the same way as described above, and the number of lung nodules was determined.

[2] = test system: human cervix cancer SiHa cells; test: Cell migration, wound healing assay; type: cell-based; settings: peptide 500 μM, 24 hours
Protocol: (§1) For the migration studies, 5×10^5 or 10^6 cells were distributed on 6-well plates and let them to adhere for 2 hours at 37° C./5% CO2. The culture medium was changed and the peptide was added at 500 μM overnight. The cell monolayer was “wounded” with a P1000 tip and incubated for 24 hours. Images of untreated cells (control) and peptide treated cells were captured with a JENOPTIK camera. Cell numbers (nuclei) were determined using the Pixcavator software version 5.0.

[3] = test system: human glioblastoma U87 cells; test: Cell migration, wound healing assay; type: cell-based; settings: peptide 500 μM, 24 hours
Protocol: as §1

[4] = test system: B16F10-Nex2 melanoma cells; test: Cell migration, wound healing assay; type: cell-based, murine; settings: for inhibition of cell migration (words): peptide 500 μM, 24 hours after wounding
Protocol: as §1
Viable B16F10-Nex2 cells (5×105)/well were distributed on a 6-well culture plate and incubated overnight at 37° C. in a humidified chamber with 5% CO2. A P1000 tip was used for wounding the cell monolayer and the image was immediately captured (0 hour) using a camera (Jenoptik) with the software Progres 2.8. After 24 hours a new image of the same field was obtained and recorded (24 hours).
Viable B16F10-Nex2 cells (3×10^5)/well were distributed in a 12-well culture plate and incubated for 4 hours at 37° C. in a humidified chamber with 5% CO2. Fresh medium containing RB10 (SEQ ID NO: 9) at different concentrations was added to the wells and incubated again for 4 hours. The monolayer wounding was performed as described above in Example 12, and images obtained accordingly. After 24 hours a new image in the same field was obtained and recorded (24 hours). […] Magnification ×100.

tumor cells = test: Cell adherence assay (detachment with trypsin/EDTA); type: cell-based; settings: for adherence at peptide concentration of 1 mM (not suspended by trypsin/EDTA): 1 mM peptide; for adherence of tumor cells to the substrate: 96-well plates, RPMI 10% FCS, seen in B16F10-Nex2.1, U87MG, A5028 melanoma, SKBR3, SiHa, HCT cells
Protocol: At a lower dose, cells would be detached with trypsin/EDTA at rates inversely proportional to the peptide concentration. Conceivably, peptides RB9 and RB10 affected the cytoskeleton dynamics of cells, thus signaling increased cell adhesion.
B16F10-Nex2.1 cells (5×10^3) and U87-MG cells (1×10^4) were cultivated in 96-well plates and incubated with different concentrations of RB9 (SEQ ID NO: 8) and RB10 (SEQ ID NO: 9) from 0.01 to 1 mM (i.e., 0.01, 0.05, 0.1, 0.25, 0.7, 0.8 and 1 mM of RB9 and RB10 for B16F10-Nex 2.1 cells; and 0.25, 0.5, 0.75 and 1 mM of RB9 and RB10 for U87-MG cells). After 18 hours incubation, viable cells detached with trypsin/EDTA were counted using Trypan blue exclusion staining. All assays were performed in triplicate in two independent experiments.
(§2) SKBR3 cells (1×10^4) were cultivated in 96-well plates and incubated with RB9 (SEQ ID NO: 8) and RB10 (SEQ ID NO: 9). After 18 hours incubation, viable cells detached with trypsin/EDTA were counted using Trypan blue exclusion staining. Assays were performed in triplicate in two independent experiments. The A2058 human melanoma cells (1×10^4) were incubated for 4 hours at 37° C. in a humidified chamber with 5% CO2. Fresh media containing different peptide concentrations of RB9 and RB10 ranging from 0 to 1 mM (i.e., 0, 0.25, 0.5 and 1 mM) was added to the wells and incubated for 24 hours. The media was then aspirated, cells were detached with 30 μl/well of trypsin-EDTA for five minutes at 37° C. and viable cells were counted in a Neubauer chamber using Trypan blue. As shown in FIGS. 2A-2D, 50% of cells were trypsin-EDTA resistant at 630 and 610 μM RB9 and RB10, respectively.

HCT cells = test: Detection of peptide-treated hyper adherent cells (MTT after trypsin-EDTA); type: cell-based, human; settings: 500 μM peptide, 24 hours
Protocol: (§3) Viable SiHa cells (1×10^4)/well were distributed on a 96-well culture plate and incubated for 4 hours at 37° C. in a humidified chamber with 5% CO2. Fresh medium containing different peptide concentrations of RB9 (SEQ ID NO: 8) and RB10 (SEQ ID NO: 9) ranging from 0 to 1 mM (i.e., 0, 0.25, 0.5 and 1 mM) was added to the wells and incubated for 24 hours. The medium was then aspirated; cells were detached with 30 μl/well of trypsin-EDTA for five minutes at 37° C. and gently washed with PBS. Hyper-adherent cells were incubated for 4 hours with 0.5 mg/mL of MTT [3-(4,5-dimethylthiazol-2-yl)-2,5-diphenyltetrazolium bromide] in fresh medium and formazan crystals were solubilized adding 1 volume of 10% SDS solution overnight. Intensity was measured using a plate reader at 570 nm.
Viable HCT cells (1×10^4)/well were distributed on a 96-well culture plate and incubated for 4 hours, following the same protocol of Example 5.

[5] = test system: A2058 human melanoma cells; test: Cell adherence, trypsin-EDTA detachment, Trypan blue count; type: cell-based; settings: 24 hours; FIGS. 2A-2D (SKBR3 and A2058), cell line not given; read-out: peptide concentration at which 50% of cells were trypsin-EDTA resistant
Protocol: as §2

SiHa cells = test: Detection of peptide-treated hyper adherent cells (MTT after trypsin-EDTA); type: cell-based, human; settings: 500 μM peptide, 24 hours
Protocol: as §3

## C[C@@H]1NC(=O)[C@H](CCCNC(=N)N)NC(=O)[C@H](C)NC(=O)[C@H]([C@@H](C)O)NC(=O)[C@H](CCC(=O)O)NC(=O)CNC(=O)[C@H](CCCNC(=N)N)NC(=O)[C@H](C)NC(=O)[C@@H](N)CSSC[C@@H](C(N)=O)NC(=O)CNC(=O)[C@H](CCC(N)=O)NC(=O)CNC(=O)[C@H](Cc2c[nH]c3ccccc23)NC(=O)[C@H](Cc2ccc(O)cc2)NC(=O)[C@H](C)NC(=O)[C@H](Cc2ccccc2)NC(=O)[C@H]([C@@H](C)O)NC1=O [RB9, CARGETARATFAYWGQGC-NH2]
[1]
  protection against lung colonization (lung nodules): successfully protected; also recorded: reduced
[2]
  inhibition of cell migration: no effect; also recorded: non-inhibition
[3]
  inhibition of cell migration: poorly; also recorded: partial inhibition
[4]
  inhibition of cell migration (words): Total inhibition; also recorded: complete inhibition
Tumor cells
  adherence at peptide concentration of 1 mM (not suspended by trypsin/EDTA): hyper-adherence
  adherence of tumor cells to the substrate: dose dependent increase of adherence
HCT cells
  cells resistant to trypsinization: 80%
[5]
  EC50: 630 µM
SiHa cells
  tumor cells resistant to trypsinization: 30%

## CARGETARATFAYWGQG-NH2 [RB10, CARGETARATFAYWGQG-NH2]
[1]
  protection against lung colonization (lung nodules): successfully protected; also recorded: protective; also recorded: reduced
[2]
  inhibition of cell migration: complete or almost complete inhibition
[3]
  inhibition of cell migration: partial migration inhibition
[4]; 30 μM, 24 hours
  inhibition of cell migration: more than 30%
[4]; 500 μM, 24 hours
  inhibition of cell migration: 100%
[4]; different concentrations, 24 hours
  migration inhibition, dose dependence: dose-dependent inhibition
[4]
  inhibition of cell migration (words): Total inhibition; also recorded: inhibited; also recorded: complete inhibition
Tumor cells
  adherence at peptide concentration of 1 mM (not suspended by trypsin/EDTA): hyper-adherence
  adherence of tumor cells to the substrate: dose dependent increase of adherence
HCT cells
  cells resistant to trypsinization: 80%
[5]
  EC50: 610 µM
SiHa cells
  tumor cells resistant to trypsinization: 80%
